The source of these data is patent US11998606B2, “Compounds and methods for selective proteolysis of glucocorticoid receptors” (Board of Regents, The University of Texas System, priority 2018, dated 2024).

As usually defined, the AUC(0-t) is exposure summed from dosing to a finite time, without extrapolation to infinity. Low readings indicate low exposure, high ones high exposure. Broadly, the Cmax is the maximum level reached in the sampled fluid or tissue. The term Tmax denotes the time at which the peak concentration occurs.

Where “and” joins values, the source holds several entries; their conditions need not be identical. Identical values can stand only once. Like-named read-outs stand apart in the source and are kept apart here.

The test system of one series is PC3 cells. Description: PC3 cell line clonogenic (colony formation) assay. The class given is cell-based. The following applies: 3.3 μM or 10 μM, 10-14 days, versus DMSO control. As for the experimental part: PC3 cells are routinely maintained in RPMI 1640 media. Cell growth is determined using crystal violet staining. Cells are initially seeded at density of 1000 to 2000 cells per well in 6-well plates. 24 hours post-seeding, cells are treated with DMSO control, enzalutamide, RU-486 or various GR degraders at 3.3 μM or 10 μM concentration. Cells are allowed to grow under regular growth conditions for 10-14 days. Cells are then fixed with 80% MeOH and stained with crystal violet solution (0.05%) overnight. Plates are then washed in water, dried and scanned.

For a further series, the system named is DU145 cells. Description: DU145 cell line proliferation assay (Incucyte confluency). The class given is cell-based. The following applies: 1 μM, 3.3 μM or 10 μM, 5 days, versus DMSO control. As for the experimental part:
DU145 cells are routinely maintained in RPMI 1640 media. Proliferation is determined using a real time cell imaging device, Incucyte. Cells are initially seeded at density of 2000 cells per well in 96-well plates. 24 hours post-seeding, cells are treated with DMSO control or GR degraders at 1 μM, 3.3 μM or 10 μM concentration. Cells are allowed to grow under regular growth conditions for 5 days while being monitored and imaged every four hours by Incucyte. Confluency of cells, a surrogate for proliferation, is calculated and plotted.

For series [1], the system named is VCaP prostate cancer cells. As to the kind of experiment: In vivo anti-tumor efficacy, VCaP castration resistant prostate cancer xenograft model. Further details: species or system Male CB17 SCID Mice. To be noted: castrated CB17 SCID mice, Example 3 100 mg/kg + enzalutamide 10 mg/kg IP once daily. As for the experimental part: 1×10^7 VCaP cells were injected into the flanks of male CB17 SCID Mice. Tumor take was monitored visually and by palpation bi-weekly. Once tumors reached 200 mm^3 mice were castrated. Once tumors stopped shrinking, mice were randomized into control and different treatment groups for 26 days. Treatment cohorts are as follows: • a. Vehicle is 5% Cremophor: 5% Ethanol in saline, (n=10 animals) • b. GR degrader example #3 (100 mg/kg) IP once daily in 5% Cremophor: 5% Ethanol in saline (n=10 animals) • c. Enzalutamide (10 mg/kg) IP once daily in 5% Cremophor: 5% Ethanol in saline (n=10 animals) • d. GR degrader example #3 (100 mg/kg)+Enzalutamide (10 mg/kg) IP once daily in 5% Cremophor: 5% Ethanol in saline (n=10 animals)
Tumor diameter and volume were calculated based on caliper measurements of tumor length and […] using the formula tumor volume=(length×width^2)/2. Tumor volume and body weight were measured three times a week.

A short description of series [2]: Single dose intraperitoneal pharmacokinetics in CD-1 mice, plasma concentration by HPLC-MS. In kind it is in vivo. The following applies: 10 mg/kg IP.
Assay in series [3]: as above
In kind it is in vivo. As for the experimental part: The intraperitoneal bioavailability was determined in the following study: three CD-1 female mice were dosed by intraperitoneal injection (10 mg/kg) and plasma collected at the following hourly time points (0.083, 0.25, 0.5, 1, 2, […] and 24h). Plasma concentration was determined by HPLC-MS.
Table 1 illustrates pharmacokinetic properties of the Example 3 compound in CD-1 mice (n=3) after a single intraperitoneal dose of 10 mg/kg.

In series [4] the test system is TRAMP-C1 prostate cancer cells. As to the kind of experiment: In vivo anti-tumor efficacy, TRAMP-C1 tumors in immunocompetent mice. Also noted: species or system male C57/Bl6 mice. To be noted: C57/Bl6 mice, Example 3 100 mg/kg + anti-PD1 antibody 200 μg IP once daily, 7 days. As for the experimental part: TRAMP-C1 cells (5×10^6) were injected into the flanks of male C57/Bl6 mice. Tumor take was monitored visually and by palpation bi-weekly. Once tumors reached 200 mm^3 mice were randomized into control and different treatment groups for 7 days. Treatment cohorts are as follows: • a. Vehicle is 5% Cremophor: 5% Ethanol in saline, (n=10 animals) • b. GR degrader Example #3 (100 mg/kg) IP once daily in 5% Cremophor: 5% Ethanol in saline (n=10 animals) • c. Anti-PD1 antibody, clone RMP1-14 (200 μg) IP once daily in 5% Cremophor: 5% Ethanol in saline (n=10 animals) • d. GR degrader Example #3 (100 mg/kg)+Anti-PD1 antibody (200 μg) IP once daily in 5% Cremophor: 5% Ethanol in saline (n=10 animals)
Tumor diameter and volume were calculated based on caliper measurements of tumor length and […] using the formula tumor volume=(length×width^2)/2. Tumor volume and body weight were measured three times.

The mark [5] stands for this setting: female, mouse, ip, CD-1 mice (n=3), single intraperitoneal dose of 10 mg/kg.

As for `CNC(=O)c1ccc(N2C(=S)N(c3ccc(C#N)c(C(F)(F)F)c3)C(=O)C2(C)C)cc1F` [enzalutamide, reference compound], the “Colony formation (crystal violet staining)” value with PC3 cells is “did not differ significantly from control”. In addition, the “Proliferation (confluency)” value in the series with DU145 cells is reported as “did not differ significantly from control”.

For `CC#C[C@]1(O)CC[C@H]2[C@@H]3CCC4=CC(=O)CCC4=C3[C@@H](c3ccc(N(C)CCCC(=O)N4CCN(C(=O)OC(C)(C)C)CC4C(=O)N4CCN(C(=O)OC(C)(C)C)CC4C(=O)NCCCOCCOCCOCCCNc4cccc5c4C(=O)N(C4CCC(=O)NC4=O)C5=O)cc3)C[C@@]21C` (stereo partly drawn) [Example 3, tert-Butyl-4-(4-(tert-butoxycarbonyl)-1-(4-((4-((8S,11R,13S,14S,17S)-17-hydroxy-13-methyl-3-oxo-17-(prop-1-yn-1-yl)-2,3,6,7,8,11,12,13,14,15,16,17-dodecahydro-1H-cyclopenta[a]phenanthren-11-yl)phenyl)(methyl)amino)butanoyl)piperazine-2-carbonyl)-3-((3-(2-(2-(3-((2-(2,6-dioxopiperidin-3-yl)-1,3-dioxoisoindolin-4-yl)amino)-propoxy)ethoxy)ethoxy)propyl)carbamoyl)piperazine-1-carboxylate], the “Colony formation (crystal violet staining)” value with PC3 cells is on record as “inhibited colony formation”. Moreover, the “Proliferation (confluency)” value with DU145 cells is listed as “displays efficacy against DU145 cancer cells”. Further, the “Xenograft tumor growth, combination with enzalutamide” value in series [1] is “synergizes with enzalutamide to inhibit growth of prostate cancer”. Further, the concentration at 8 h in series [2] (4 hr, individual animals, read-out: Individual concentration) was 3220 nM and 3210 nM; in series [2] (8 hr, individual animals, read-out: Individual concentration), 2980 nM and 2610 nM; in series [2] (female, CD-1, mouse, ip, 10 mg/kg, 8 hr, individual animals, read-out: Individual concentration), 2900 nM; in series [2] (female, CD-1, mouse, ip, 10 mg/kg, 8 hr, n=3, read-out: Mean concentration) it was 2830 nM. Further, the concentration at 0.5 h was 72.2 nM and 135 nM in series [3] (0.083 hr, 10 mg/kg IP, CD-1 mice, individual animals, 10 mg/kg, read-out: Individual concentration); 283 nM and 93 nM and 173 nM in series [3] (0.25 hr, 10 mg/kg IP, CD-1 mice, individual animals, 10 mg/kg, read-out: Individual concentration); 652 nM and 939 nM in series [3] (0.5 hr, 10 mg/kg IP, CD-1 mice, individual animals, 10 mg/kg, read-out: Individual concentration); 1010 nM and 147 nM and 358 nM in series [3] (1 hr, 10 mg/kg IP, CD-1 mice, individual animals, 10 mg/kg, read-out: Individual concentration); 1480 nM and 2870 nM in series [3] (2 hr, 10 mg/kg IP, CD-1 mice, individual animals, 10 mg/kg, read-out: Individual concentration); 505 nM and 617 nM in series [3] (24 hr, 10 mg/kg IP, CD-1 mice, individual animals, 10 mg/kg, read-out: Individual concentration). For the same compound, the concentration at 0.5 h in series [3] (female, CD-1, mouse, ip, 10 mg/kg, 0.5 hr, 10 mg/kg IP, CD-1 mice, individual animals, read-out: Individual concentration) was 727 nM; in series [3] (female, CD-1, mouse, ip, 10 mg/kg, 0.5 hr, 10 mg/kg IP, CD-1 mice, n=3, read-out: Mean concentration), 773 nM. The concentration at 0.083 h came to 114 nM in series [3] (female, CD-1, mouse, ip, 10 mg/kg, 0.083 hr, 10 mg/kg IP, CD-1 mice, individual animals, read-out: Individual concentration) and 107 nM in series [3] (female, CD-1, mouse, ip, 10 mg/kg, 0.083 hr, 10 mg/kg IP, CD-1 mice, n=3, read-out: Mean concentration). For the same compound, the concentration at 0.25 h in series [3] (female, CD-1, mouse, ip, 10 mg/kg, 0.25 hr, 10 mg/kg IP, CD-1 mice, n=3) came out at 183 nM. Further, the concentration at 1 h in series [3] (female, CD-1, mouse, ip, 10 mg/kg, 1 hr, 10 mg/kg IP, CD-1 mice, n=3) came to 505 nM. The concentration at 2 h was 2240 nM in series [3] (female, CD-1, mouse, ip, 10 mg/kg, 2 hr, 10 mg/kg IP, CD-1 mice, individual animals, read-out: Individual concentration) and 2200 nM in series [3] (female, CD-1, mouse, ip, 10 mg/kg, 2 hr, 10 mg/kg IP, CD-1 mice, n=3, read-out: Mean concentration). Moreover, the concentration at 4 h was 3300 nM in series [3] (female, CD-1, mouse, ip, 10 mg/kg, 10 mg/kg IP, CD-1 mice, individual animals, read-out: Individual concentration) and 3240 nM in series [3] (female, CD-1, mouse, ip, 10 mg/kg, 10 mg/kg IP, CD-1 mice, n=3, read-out: Mean concentration). The concentration at 24 h in series [3] (female, CD-1, mouse, ip, 10 mg/kg, 24 hr, 10 mg/kg IP, CD-1 mice, individual animals, read-out: Individual concentration) is 440 nM; in series [3] (female, CD-1, mouse, ip, 10 mg/kg, 24 hr, 10 mg/kg IP, CD-1 mice, n=3, read-out: Mean concentration), 521 nM. The compound further came in with an exposure AUC(0-t) in series [3] (setting [5]) of 46.2 µM·h. In series [3] (setting [5]), the maximum concentration (Cmax) was found to be 3240 nM. For the same compound, the Tmax in series [3] (setting [5]) worked out at 4 h. The “Tumor growth, combination with anti-PD1 antibody” value in series [4] is recorded as “synergizes with anti-PD1 antibody to inhibit growth of prostate cancer”.
